Reference: ChEMBL document CHEMBL4043072, “Catechin-Bound Ceanothane-Type Triterpenoid Derivatives from the Roots of Zizyphus jujuba” (J Nat Prod, 2017)
pIC50: −log10 of the molar value.

Experiment: Inhibition of cell proliferation of activated rat HSC-T6 cells incubated for 24 hrs by MTT assay
Type: functional, cell-based
Settings: HSC-T6, 24 h

SMILES | pIC50
C=C(C)[C@@H]1CC[C@]2(C(=O)O)CC[C@]3(C)[C@H](CC[C@@H]4[C@@]5(C)[C@H]6C(=O)c7c(cc(O)c8c7O[C@@H](c7ccc(O)c(O)c7)[C@@H](O)C8)O[C@@H]6C(C)(C)[C@@H]5CC[C@]43C)[C@@H]12 | 4.36
O=C(O[C@@H]1Cc2c(O)cc(O)cc2O[C@@H]1c1cc(O)c(O)c(O)c1)c1cc(O)c(O)c(O)c1 [EPIGALOCATECHIN GALLATE] | 4.50
